Measured values published in patent publication US20220213052A1, “INHIBITORS OF RNA-BINDING PROTEINS, COMPOSITIONS THEREOF, AND THERAPEUTIC USES THEROF” (The University of North Carolina at Chapel Hill, priority 2019, published 2022).
Structures can show the parent of a compound that is named as a salt. Where two headings read alike, the source gives them in different places.

Key:
Musashi 2 (Msi2) = Musashi 2 (Msi2) (Homo sapiens, UniProt Q96DH6); test: Msi2 FP assay; type: binding
Experimental: (§1) With the FP assay of HuR-Msi1ARE binding, the inhibition of the HuR-Msi1ARE interaction by various compounds of the present technology was assessed. Similar FP assays for Musashi 2 (Msi2) and for RNA-binding protein Lin-28 homolog B (LIN28B) were also performed on various compounds of the present technology. The results of such assays for HuR are provided in Table 1 alongside the compound structures as well as ID numbers for ease of reference; the results of such assays for Msi1, Msi2, and LIN28B are provided in Table 2.

[1] = tested on: colon cancer cell line HCT116 β/W; test: Cytotoxicity assay (WST-8), HCT116 β/W; type: cell-based; conditions: Homo sapiens, HCT-116, 96 h incubation
Experimental: (§2) The cytotoxicity of various compounds of the present technology in several cancer cell lines (pancreatic cancer cell line MIAPaCa-2, triple-negative breast cancer cell line MDA-MB-231, and colon cancer cell lines HCT116, HCT116 β/W, and RKO) was assessed by a cytotoxicity assay. Cells were seeded in 96-well culture plates (3,000-5,000 cells/well) and treated with titrated compounds in triplicate. After 96 h incubation, cell growth medium was removed and proliferation reagent WST-8 (Sigma) was added to each well and incubated at 37° C. for 1-3 h. Absorbance was then measured with a plate reader at 450 nm with correction at 650 nm. The results were expressed as the percentage of absorbance of treated wells versus that of vehicle control. IC50, the drug concentration causing 50% growth inhibition, was calculated via sigmoid curve fitting using GraphPad Prism 5.0. The results for those compounds tested against MIAPaCa-2 and MDA-MB-231 are provided in Table 1; the results for those compounds tested against colon cancer cell lines HCT116, HCT116 β/W, and RKO are provided in Table 3.

[2] = tested on: triple-negative breast cancer cell line MDA-MB-231; test: Cytotoxicity assay (WST-8), MDA-MB-231; type: cell-based; conditions: Homo sapiens, 96 h incubation
Experimental: as §2

Msi1 = Msi1 (Homo sapiens, UniProt O43347); test: Msi1 FP assay; type: binding
Experimental: as §1

[3] = tested on: colon cancer cell line RKO; test: Cytotoxicity assay (WST-8), RKO; type: cell-based; conditions: 96 h incubation
Experimental: as §2

[4] = target: T1, RNA-binding protein Lin-28 homolog B (LIN28B) (Homo sapiens, UniProt Q6ZN17); test: LIN28B FP assay
T1 sequence (Q6ZN17 1-250): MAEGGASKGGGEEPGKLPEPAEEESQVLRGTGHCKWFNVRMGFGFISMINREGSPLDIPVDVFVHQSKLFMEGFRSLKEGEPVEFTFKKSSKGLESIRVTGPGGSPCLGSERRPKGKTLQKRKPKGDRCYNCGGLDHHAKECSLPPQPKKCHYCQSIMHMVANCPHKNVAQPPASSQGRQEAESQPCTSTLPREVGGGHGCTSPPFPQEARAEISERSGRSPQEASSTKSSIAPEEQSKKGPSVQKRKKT
Experimental: as §1

[5] = tested on: pancreatic cancer cell line MIAPaCa-2; test: Cytotoxicity assay (WST-8), MIAPaCa-2; type: cell-based; conditions: Homo sapiens, MIA PaCa-2, 96 h incubation
Experimental: as §2

[6] = tested on: colon cancer cell line SW480; test: Cytotoxicity assay (WST-8), SW480; type: cell-based; conditions: Homo sapiens, 96 h incubation
[7] = tested on: colon cancer cell line HCT116; test: Cytotoxicity assay (WST-8), HCT116; type: cell-based; conditions: Homo sapiens, HCT-116, 96 h incubation
Experimental: as §2

[8] = target: T2, full-length human HuR protein (Homo sapiens, UniProt Q15717); test: FP assay of HuR-Msi1 ARE binding inhibition; conditions: HuR-Msi1 ARE interaction; read-out: HuR Ki via FP assay
T2 construct: full-length human HuR protein was produced by the KU COBRE-PSF Protein Purification Group; made in house
Source text: (§3) A fluorescence polarization (FP)-based binding assay was utilized to assess the inhibition of HuR protein interaction with the ARE site of Msi1 mRNA (“HuR-Msi1^ARE”) by compounds of interest. Briefly, full-length human HuR protein was produced by the KU COBRE-PSF Protein Purification Group and Bcl2, Msi1 and XIAP mRNA sequences (16 nt) were designed based on literature precedent^23,24,31,32. Fluorescein labeled RNAs were purchased from Dharmacon with the following sequences: Msi1 RNA: 5′-[…]-3′-fluorescein; Bcl-2 RNA: 5′-[…]-3′-fluorescein; XIAP RNA: 5′-[…] UGUC-3′-fluorescein, and a 16-nt degenerative RNA with 3′-fluorescein label was used as a negative control.
as §1

[9] = target: T2, full-length human HuR protein; test: FP-based binding of full length HuR to fluorescein-labeled target RNAs; conditions: 16 nt RNA oligo, 3′-fluorescein
Experimental: FIG. 3 provides the results of a fluorescence polarization (FP)-based binding assay, illustrating that full length HuR binds to FITC-Bcl-2, Msi1, and XIAP RNA but not to scrambled oligo-FITC. The concentration of FITC-RNA used in the assay is 2 nM.
as §3

MDA-MB-231 cells = test: Matrigel invasion assay; type: cell-based; conditions: 10 μM; 24 h pretreatment, 20 h incubation
Experimental: To examine the anti-metastatic effect of compounds of the present technology, an invasion assay using Matrigel Invasion Chambers coated with Matrigel Matrix was performed. To perform the assays, MDA-MB-231 cells pretreated with compounds for 24 hours are added to the chambers and then incubated for 20 hours. Cells that remained on the upper surface of the chamber are completely removed with a cotton swab. Cells that emigrated or invaded through the membrane/Matrigel to the bottom of the chamber were fixed and stained with 0.2% crystal violet and photographed.

[10] = target: T3, HuR protein bound to ARE^Msi1-Biotin (Homo sapiens, UniProt Q15717); test: RNA immunoprecipitation (RNA-IP) pull-down assay; type: cell-based; conditions: 20 μM
T3 construct: endogenous in cells; cytoplasmic lysate
Experimental: Pull-down Assay #1—RNA Immunoprecipitation (RNA-IP): Cells with HuR overexpression will be treated with compounds, then the cell cytoplasmic lysates were collected using NE-PER Nuclear and Cytoplasmic Extraction Kit (Thermo Scientific), and subsequently to the cell cytoplasmic lysates were added the biotinylated target ARE oligo from Msi1 mRNA (ARE^Msi1-Biotin). Following this, streptavidin beads were added to pull down HuR protein bound to ARE^Msi1-Biotin. Unlabeled target AREs used as positive control. Compounds of the present technology block the HuR pull-down by the biotinylated ARE oligo, illustrating inhibition of the HuR-mRNA interaction. For example, using 20 μM KH-39, 20 μM KH-56, and 10 μM KH-58 in such a RNA-IP assay provided the data illustrated in FIG. 5. The numbers immediately below the pictured bands in FIG. 5 are calculated by diving the band intensity of the particular sample by the band intensity of the DMSO treated sample (entry 3). […]

[11] = target: T4, HuR-bound target mRNAs in MDA-MB-231 cells (Homo sapiens, UniProt Q15717); test: Ribonucleoprotein immunoprecipitation (RNP-IP) pull-down assay; type: cell-based; conditions: 10 μM
T4 construct: endogenous in cells; host or cells: MDA-MB-231
Experimental: Pull-down Assay #2—Ribonuleoprotein Immunoprecipitation (RNP-IP): Cells with HuR overexpression were treated with compounds, then the cell cytoplasmic lysates collected using NE-PER Nuclear and Cytoplasmic Extraction Kit (Thermo Scientific), then the cell cytoplasmic lysates incubated with anti-HuR antibody, and subsequently Protein G agarose beads (from Roche) added to pull down HuR protein. The HuR-bound target mRNAs pulled down were measured by qRT-PCR using a reported method (Ji, Q., et al., MicroRNA miR-34 inhibits human pancreatic cancer tumor-initiating cells. PLoS One, 2009. 4(8): p. e6816, incorporated herein by reference). Mouse IgG will be used as negative control. Compounds of the present technology block the target mRNAs pulled down by HuR antibody.

[12] = cell marked (RRM1), read-out: Msi2 (Ki) (RRM1)
[13] = cell without (RRM1) mark, read-out: Msi2 (Ki)

T2 sequence (Q15717 whole entry): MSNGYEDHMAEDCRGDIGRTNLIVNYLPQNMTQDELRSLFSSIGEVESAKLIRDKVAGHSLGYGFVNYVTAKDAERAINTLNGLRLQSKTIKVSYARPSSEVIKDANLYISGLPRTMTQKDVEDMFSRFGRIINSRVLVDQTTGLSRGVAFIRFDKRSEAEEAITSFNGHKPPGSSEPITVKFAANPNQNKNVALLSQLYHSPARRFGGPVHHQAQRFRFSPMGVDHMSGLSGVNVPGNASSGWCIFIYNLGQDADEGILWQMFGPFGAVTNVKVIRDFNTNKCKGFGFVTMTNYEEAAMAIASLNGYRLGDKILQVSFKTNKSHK
Sequence of Msi1 (O43347 whole entry, species assumed): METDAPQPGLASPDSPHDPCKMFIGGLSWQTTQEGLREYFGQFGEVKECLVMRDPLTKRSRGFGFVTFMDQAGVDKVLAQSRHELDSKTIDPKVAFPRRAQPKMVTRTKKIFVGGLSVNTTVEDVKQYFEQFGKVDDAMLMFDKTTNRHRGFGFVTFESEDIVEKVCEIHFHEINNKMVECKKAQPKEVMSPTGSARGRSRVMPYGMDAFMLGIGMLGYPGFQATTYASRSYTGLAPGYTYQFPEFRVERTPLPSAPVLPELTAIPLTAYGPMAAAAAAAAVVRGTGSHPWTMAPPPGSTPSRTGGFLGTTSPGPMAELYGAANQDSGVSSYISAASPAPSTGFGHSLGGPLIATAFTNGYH
Sequence of Musashi 2 (Msi2) (Q96DH6 whole entry, species assumed): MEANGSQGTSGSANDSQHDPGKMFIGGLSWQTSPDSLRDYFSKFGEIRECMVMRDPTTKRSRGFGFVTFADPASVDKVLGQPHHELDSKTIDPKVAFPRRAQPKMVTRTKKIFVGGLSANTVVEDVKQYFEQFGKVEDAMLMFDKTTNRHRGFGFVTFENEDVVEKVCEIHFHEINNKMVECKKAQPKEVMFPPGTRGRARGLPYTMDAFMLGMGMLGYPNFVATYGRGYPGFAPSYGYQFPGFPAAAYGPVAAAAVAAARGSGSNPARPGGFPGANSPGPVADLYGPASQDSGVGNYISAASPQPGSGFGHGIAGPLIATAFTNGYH
T4 sequence (Q15717 2-326 limits assumed): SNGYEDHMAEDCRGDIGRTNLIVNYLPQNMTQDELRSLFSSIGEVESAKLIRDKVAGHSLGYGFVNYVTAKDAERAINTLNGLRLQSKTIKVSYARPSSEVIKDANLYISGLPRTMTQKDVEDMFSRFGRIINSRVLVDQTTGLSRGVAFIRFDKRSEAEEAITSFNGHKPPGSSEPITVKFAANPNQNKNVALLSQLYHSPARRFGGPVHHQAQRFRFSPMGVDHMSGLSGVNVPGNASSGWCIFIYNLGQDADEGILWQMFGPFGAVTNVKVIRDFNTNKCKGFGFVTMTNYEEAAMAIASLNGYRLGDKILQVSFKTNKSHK
T3 sequence (Q15717 2-326 limits assumed): as above

Row | Compound | Ki (Msi1) [µM] | Ki [4] [µM] | Ki [8] [µM] | Ki (Musashi 2 (Msi2); [13]) [µM] | IC50 [2] [µM] | further results
1 | CC(C)(C)c1ccc(C(=O)Nc2ccc3sc(/C=C/C(=O)O)cc3c2)cc1 [KH-19A, (E)-3-(5-(4-(tert-butyl)benzamido)benzo[b]thiophen-2-yl)acrylic acid] | 2.24 | > 20 | 0.97 |  | 72.1 | Ki (Musashi 2 (Msi2); [12]): 0.28 µM; IC50 [1]: 80.6 µM; IC50 [3]: 78.5 µM; IC50 [5]: 56 µM; IC50 [6]: > 100 µM; IC50 [7]: > 100 µM
2 | 5′-UAGUUAUUUUUA UGUC-3′-fluorescein (UAGUUAUUUUUAUGUC; 3'-fluorescein, further chemistry not given here) [XIAP RNA, Fluorescein labeled 16 nt RNA purchased from Dharmacon] |  |  |  |  |  | Kd [9]: 0.0035 µM
3 | CC(C)(C)C(=O)Nc1ccc2sc(/C=C/C(=O)O)cc2c1 [KH-20A, (E)-3-(5-pivalamidobenzo[b]thiophen-2-yl)acrylic acid] | > 20 | > 20 | > 20 | > 20 |  | IC50 [5]: > 100 µM
4 | CN(C)c1ccc(C(=O)Nc2ccc3sc(/C=C/C(=O)O)cc3c2)cc1 [KH-36A, (E)-3-(5-(4-(Dimethylamino)benzamido)benzo[b]thiophen-2-yl)acrylic acid] | 0.22 | 1.64 | 0.12 |  | > 100 | Ki (Musashi 2 (Msi2); [12]): 0.5 µM; IC50 [1]: 99.9 µM; IC50 [3]: 62.9 µM; IC50 [6]: > 100 µM; IC50 [7]: 98.5 µM
5 | 5′-GCUUUUAUUUAUUUUG-3′-fluorescein (3'-fluorescein, further chemistry not given here) [Msi1 RNA, Fluorescein labeled 16 nt RNA purchased from Dharmacon] |  |  |  |  |  | Kd [9]: 0.002 µM
6 | 5′-AAAAGAUUUAUUUAUU-3′-fluorescein (3'-fluorescein, further chemistry not given here) [Bcl-2 RNA, Fluorescein labeled 16 nt RNA purchased from Dharmacon] |  |  |  |  |  | Kd [9]: 0.0063 µM
7 | Cc1ccc(C(=O)Nc2ccc3sc(CCC(=O)O)cc3c2)cc1 [KH-27A, 3-(5-(4-Methylbenzamido)benzo[b]thiophen-2-yl)propanoic acid] | > 20 | > 20 | > 20 | > 20 | > 100 | 
8 | CC(C)(C)c1ccc(C(=O)Nc2ccc3sc(CCC(=O)O)cc3c2)cc1 [KH-22A, 3-(5-(4-(tert-Butyl)benzamido)benzo[b]thiophen-2-yl)propanoic acid] | > 20 | > 20 | 3.83 | > 20 | 19.8 | 
9 | CC(C)c1ccc(C(=O)Nc2ccc3sc(CCC(=O)NN)cc3c2)cc1 [KH-37E] | > 20 | > 20 | 5.18 | > 20 | > 100 | 

More lines, main results first:

Row | Ki (Msi1) [µM] | Ki [4] [µM] | Ki [8] [µM] | Ki (Musashi 2 (Msi2); [13]) [µM] | Compound | IC50 [2] [µM] | further results
10 | > 20 | > 20 | > 20 | > 20 | CC(C)(C)C(=O)Nc1ccc2sc(/C=C/C(=O)NO)cc2c1 [KH-20, (E)-N-hydroxy-3-(5-pivalamidobenzo[b]thiophen-2-yl)acrylamide] |  | IC50 [5]: 3.98 µM
11 |  | > 20 | > 20 | > 20 | O=C(Nc1ccc2[nH]c(C(=O)NO)cc2c1)c1ccccn1 [KH-56, N-hydroxy-5-(picolinamido)-1H-indole-2-carboxamide hydrochloride] | 75.3 | MDA-MB-231 cell invasion (MDA-MB-231 cells): did not provide a statistically significant difference; ARE^Msi1-Biotin mediated pull-down of HuR protein [10]: did not show pull-down of HuR protein; HuR pull-down of target mRNAs [11]: did not provide results statistically distinguishable from vehicle control
12 |  | 7.1 | 0.55 |  | CN(C)c1ccc(C(=O)Nc2ccc3sc(/C=C/C(=O)NO)cc3c2)cc1 [KH-36, (E)-4-(dimethylamino)-N-(2-(3-(hydroxyamino)-3-oxoprop-1-en-1-yl)benzo[b]thiophen-5-yl)benzamide] | 4.02 | Ki (Musashi 2 (Msi2); [12]): 1.5 µM; IC50 [1]: 4 µM; IC50 [3]: 5.74 µM; IC50 [6]: 4.89 µM; IC50 [7]: 5.05 µM
13 | 4.87 | > 20 | 0.51 |  | O=C(/C=C/c1cc2cc(NC(=O)c3ccc(C(F)(F)F)cc3)ccc2s1)NO [KH-32] | 2.62 | Ki (Musashi 2 (Msi2); [12]): 2.64 µM
14 | > 20 | > 20 | 2.88 | > 20 | CN(C)c1ccc(C(=O)Nc2ccc3sc(CCC(=O)NO)cc3c2)cc1 [KH-38] | 25.9 | 
15 | > 20 | > 20 | 4.98 | > 20 | CC(C)(C)c1cccc(C(=O)Nc2ccc3sc(CCC(=O)NO)cc3c2)c1 [KH-30, 3-(tert-Butyl)-N-(2-(3-(hydroxyamino)-3-oxopropyl)benzo[b]thiophen-5-yl)benzamide] | 5.51 | 
